The text below walks through data of patent publication US20230372318A1, “METHODS FOR TREATING A SUBJECT HAVING MULTIPLE SYSTEM ATROPHY” (Theravance Biopharma R&D IP, LLC, priority 2022, published 2023).

The structures appear in SMILES notation.

Data set [1] concerns plasma protein. In words: Plasma protein binding, rat. The data set is classed as in vitro ADME.
Data set [2] relates to heart rate (HR) and mean arterial pressure (MAP). In words: Cardiovascular model in anesthetized rat: intrinsic effect on MAP and HR. The data set is classed as in vivo. The conditions noted are these: anesthetized rats. On the procedure:
These studies were conducted to assess the effect of a single administration of ampreloxetine on heart rate (HR) and mean arterial pressure (MAP) in anesthetized rats. Using this cardiovascular model, the intrinsic effect on HR and the inhibition of tyramine pressor response were evaluated as surrogate measures that reflect the ability of ampreloxetine to inhibit norepinephrine transporters in the periphery.
Normotensive male Sprague-Dawley rats weighing between 250-350 g were anesthetized with an intraperitoneal injection (IP) of thiobutabarbital (Inactin). All animals were kept under complete anesthesia (i.e., absence of response to toe pinch test) for the surgery and for the duration of the study. The right common carotid artery and jugular vein were isolated and catheterized. The trachea was intubated to keep the airway open during the study. After completion of surgery, the arterial catheter was connected to a pressure transducer and baseline blood pressure [Systolic (SBP), Mean Arterial (MAP) and Diastolic (DBP)] and heart rate (HR) were recorded using the Notocord-HEM data acquisition system. Following at least 60 min of baseline (i.e., the last 10 min was stable), vehicle (10% Tween20, 2 mL/kg, IP) was administered and any potential effect was monitored for at least 10 min. After this period, rats were injected with either vehicle or ampreloxetine ([…], 2 mL/kg, IP) and changes in MAP and HR were monitored for 25 min. Rats were then challenged intravenously via the jugular vein catheter, with non-cumulative bolus doses of tyramine (0.03, 0.1, 0.3, and 1 mg/kg, 1 mL/kg, IV) given at 5 min intervals. After the last dose of tyramine, data acquisition continued for another 10 min before the experiment was terminated. In a separate group of animals, blood was collected to assess the concentration of ampreloxetine in plasma at 15 min and 60 min after dosing. Free plasma concentrations obtained from 15 min were used to construct the concentration response curve (CRC) to MAP and HR while concentrations from 60 min were used for the tyramine CRC. Animals were euthanized by carbon dioxide asphyxiation followed by thoracotomy.
Intrinsic hemodynamic effects were reported as the maximum change in MAP or HR induced by ampreloxetine before tyramine challenge. Inhibition of tyramine effect was normalized to the response to 1 mg/kg dose of tyramine in the vehicle control group. Concentration response curves (CRCs) of the change in MAP, HR and inhibition of tyramine response were analyzed through iterative curve fitting to a logistic equation using Prism 5.00™ (GraphPad, Inc.). The equation used was as follows:
Y=(Bottom+Top−Bottom)/(1+10^((Log EC50−X)*HillSlope)) […]

Data set [3] has as its target T1, SERT (Rattus norvegicus, UniProt P31652).
T1 construct: from tissue; host or cells: lumbar spinal cord of orally dosed male Sprague Dawley rats
In words: Ex vivo transporter occupancy in rat spinal cord (SERT). On the procedure:
Adult male Sprague Dawley rats (Charles River) were housed under controlled laboratory conditions (temperature at 21±1° C.) on a 12:12 hour light-dark cycle. Animals were given free access to food and water upon arrival to the facility and animals were acclimatized to their holding room for at least 48 hours. Animals were fasted but allowed free access to water for 15-18 hours prior to dosing.
Rats (n=6/timepoint/dose level) received a single oral dose of 4-[2-(2,4,6-trifluorophenoxymethyl)phenyl]piperidine (0.3, 1, 5, 10, 30, and 60 mg/kg) and were euthanized by decapitation at specified time points (0.5, 2, 4, 6, and 8 hr for 5 mg/kg dose level; 2 hr for 0.3, 1, 10, 30, and 60 mg/kg dose levels) post-administration. Spinal cords were dissected for ex vivo transporter occupancy and PK assessments from the same animals. The spinal cord was harvested by hydraulic extrusion using phosphate-buffered saline, and the lumbar segment dissected and frozen on dry ice. The remaining spinal cord segments were collected and homogenized in water (25% w/w) for PK analysis. All samples were stored at −80° C. until analysis.
A kinetic radioligand binding assay was used to determine NET and SERT occupancy in rat spinal cord, as described previously in Bourdet et al., J. Pharm. Exp. Ther. (2012) 341:137-145. PK/PD parameters were estimated by a compartmental modeling approach (WinNonlin Version 5.0.1, Pharsight Corporation). One- and two-compartment PK models with first-order absorption and elimination were evaluated. The one-compartment model was selected. The pharmacodynamics model was an effect compartment Emax model linked directly to the central PK compartment (WinNonlin PK Model 3, PD Model 101). Selection of models was based upon best fit in terms of visual inspection, Akaike Information Criteria, and weighted residual sum of squares using the Gauss-Newton minimization method.

For data set [4], the system named is subjects with attention-deficit hyperactivity disorder and fibromyalgia. The conditions noted are these: 5 mg or 20 mg once per day for 6 weeks; cited from earlier work.

T1 sequence (P31652 whole entry): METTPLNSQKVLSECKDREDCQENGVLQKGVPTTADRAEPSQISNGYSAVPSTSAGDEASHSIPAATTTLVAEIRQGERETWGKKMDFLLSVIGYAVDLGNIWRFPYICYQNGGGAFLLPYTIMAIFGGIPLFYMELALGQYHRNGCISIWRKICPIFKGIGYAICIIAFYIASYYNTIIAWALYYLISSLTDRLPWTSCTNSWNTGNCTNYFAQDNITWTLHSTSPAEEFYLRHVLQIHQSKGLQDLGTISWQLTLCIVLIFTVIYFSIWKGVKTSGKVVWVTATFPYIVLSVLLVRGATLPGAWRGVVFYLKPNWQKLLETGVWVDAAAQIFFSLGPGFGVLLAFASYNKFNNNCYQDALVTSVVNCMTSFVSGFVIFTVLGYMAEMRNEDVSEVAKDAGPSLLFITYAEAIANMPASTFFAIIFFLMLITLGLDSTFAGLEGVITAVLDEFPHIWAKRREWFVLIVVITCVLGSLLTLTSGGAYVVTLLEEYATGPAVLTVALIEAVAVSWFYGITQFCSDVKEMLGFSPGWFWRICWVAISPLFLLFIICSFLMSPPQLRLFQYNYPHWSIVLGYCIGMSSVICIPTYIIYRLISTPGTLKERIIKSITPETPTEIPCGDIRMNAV

Turning to `Fc1cc(F)c(OCc2ccccc2C2CCNCC2)c(F)c1` [Ampreloxetine, 4-[2-(2,4,6-trifluorophenoxymethyl)phenyl]piperidine], the Plasma protein binding in data set [1] is reported as 90.2%. Moreover, in data set [2] (0.01-30 mg/kg IP), the “Effect on MAP and HR” value was “dose dependently increased MAP and HR”; the “Maximum change in HR” value is listed as 28.1 (22.4-33.7) bpm; the “Maximum change in MAP” value is recorded as 13.2 (4.4-22.1) mm Hg. In data set [2] (IP, free plasma concentration at 15 min), the “HR potency (HR EC25), free plasma concentration giving 25 bpm change in HR” value stood at 8.6 nM. Moreover, in data set [3] (rat spinal cord, oral dose), the “EC50, plasma concentration associated with 50% SERT occupancy” value is 0.0508 µg/mL. Also, the “Emax, maximal SERT occupancy in spinal cord” value in data set [3] (rat, single oral dose, effect compartment PK/PD model) is on record as 79.0 % occupancy. The “keo, first-order equilibration rate constant, SERT” value in data set [3] (rat, central PK compartment to effect compartment) was determined as 11.0 h⁻¹. In data set [4], the Safety and tolerability entry was “generally well tolerated with no clinically significant safety signals”.
